Assay results published in EP4620466A1, “TRIMETHOXYSTYRYL DERIVATIVES FOR USE IN THE TREATMENT OF PACLITAXEL-RESISTANT CANCER” (Instituto de Investigación Biomédica de Salamanca De la …, priority 2024, dated 2025).

Tests used:
Format in all cases: cell-based
CAL33 RPTX = assay: MTT cell viability assay in paclitaxel-resistant cell line; conditions: for sensitivity of paclitaxel-resistant cells (cell viability): CAL33 RPTX compared with parental CAL33, 24, 48 and 72 hours of exposure, six doses (Figures 1 and 2)
Experimental: • Figure 1. Comparison of the effect on cell viability in the parental and paclitaxel-resistant CAL33 cell lines after 24, 48 and 72 hours of exposure to six different doses of paclitaxel. X axis, time (hours). Y axis, cell viability (%). • Figure 2. Comparison of the effect on cell viability in the parental and paclitaxel-resistant CAL33 cell lines after 24, 48 and 72 hours of exposure to six different doses of Compound 39. X axis, Compund 39 (nM). Y axis, cell viability (%). *p-value < 0.05. **p-value < 0.01. ***p-value < 0.001.
In order to characterise resistance to taxanes in HNSCC, a paclitaxel-resistant cell line was generated from the CAL33 cell line, derived from tongue carcinoma, following the method of progressively increasing the dose of cytotoxic agent on the cells in culture. The generation of a stable paclitaxel-resistant cell line was confirmed by an MTT cell viability assay, named CAL33 RPTX (Figure 1).
In order to search for an alternative treatment with a similar but effective cellular effect on paclitaxel-resistant HNSCC cells, a cell viability assay was performed to test the response to Compound 39 of the CAL33 and CAL33 RPTX cell lines.

HeLa cells [1] = assay: Cell proliferation assay (XTT), cytostatic activity; conditions: Homo sapiens, 72-h treatment, XTT cell proliferation kit
Experimental: […] cells were seeded in 96-well plates and incubated in the presence or the absence of the indicated compounds at concentrations ranging from 10^-5 to 10^-12 M. The cytostatic activity was measured after 72-h treatments using the XTT (sodium 3'-[1-(phenylaminocarbonyl)-3,4-tetrazolium]-bis(4- methoxy-6-nitro)-benzenesulfonic acid hydrate) cell proliferation kit (Roche Molecular Biochemicals; Mannheim, Germany) following the manufacturer's specifications. Each condition was seeded in triplicate, and experiments were repeated three times to calculate IC values by non-linear regression fitting the data.

HeLa cells [2] = assay: Cell proliferation assay with and without verapamil (MDR transporter check)
[3] = Homo sapiens, without verapamil (control), compounds for 72 h, read-out: potency in the absence of verapamil
[4] = read-out: potency in the presence of 10 µM verapamil, incubated with 10 µM verapamil for 2 h, then compounds for 72 h

| IC50 (HeLa cells [1]) | IC50 (HeLa cells [2]; [3]) | IC50 (HeLa cells [2]; [4]) | SMILES | sensitivity of paclitaxel-resistant cells (cell viability) (CAL33 RPTX) | effect on tumour cell viability (CAL33 RPTX; at very low doses, CAL33 and CAL33 RPTX cell lines (Figure 2)) |
| --- | --- | --- | --- | --- | --- |
| – | – | – | CC(=O)O[C@H]1C(=O)[C@@]2(C)[C@H]([C@H](OC(=O)c3ccccc3)[C@]3(O)C[C@H](OC(=O)[C@H](O)[C@@H](NC(=O)c4ccccc4)c4ccccc4)C(C)=C1C3(C)C)[C@]1(OC(C)=O)CO[C@@H]1C[C@@H]2O [paclitaxel] | resistant | – |
| > 1000 nM | 551 nM | 642 nM | COc1cc(OC)cc(N(C)S(=O)(=O)c2ccc3c(c2)c(C#N)cn3C)c1 [Compound 53, 3-cyano-N-(3,5-dimethoxyphenyl)-N,1-dimethyl-1H-indole-5-sulfonamide] | – | – |
| 1400 nM | > 1000 nM | > 1000 nM | COc1cc(NS(=O)(=O)c2ccc3c(ccn3C)c2)cc(OC)c1 [Compound 45, N-(3,5-dimethoxyphenyl)-1-methyl-1H-indole-5-sulfonamide] | – | – |

| SMILES | IC50 (HeLa cells [1]) | IC50 (HeLa cells [2]; [3]) | IC50 (HeLa cells [2]; [4]) | sensitivity of paclitaxel-resistant cells (cell viability) (CAL33 RPTX) | effect on tumour cell viability (CAL33 RPTX; at very low doses, CAL33 and CAL33 RPTX cell lines (Figure 2)) |
| --- | --- | --- | --- | --- | --- |
| COc1cc(/C=C\c2ccc3c(c2)c(C(N)=O)cn3C)cc(OC)c1OC [Compound 39, (Z)-1-Methyl-5-(3,4,5-trimethoxystyryl)-1H-indole-3-carboxamide] | 1200 nM | – | – | maintain sensitivity | pronounced effect |
